Several values for one entry are separate records, joined by “and”; a condition that tells them apart may be missing. Equal entries are not always repeated.
How the values were obtained:
[1] = test system: mouse primary cortical neurons challenged with Aβ1-42 oligomers (AβO); test: AβO-induced neurotoxicity, test item added concomitantly (T0) or 3 h (T3) or 6 h (T6) after AβO, MTT assay; format: cell-based; conditions: for % of neuroprotection and anti-apoptotic effects / viability at 1 µM: 1000 nM
Description: Mouse primary cortical neurons were treated at 0 h (T0) with vehicle or 1 μM AβO, Different concentrations of Compound C or HNG (0.1 μM, used as positive control) were added concomitantly to AβO at 0 h (T0)), 3 h (T3) or 6 h (T6) after AβO. Then, cortical neurons were incubated for 24 h and cell viability was determined using the MTT assay (n=3 determinations per condition, 1 independent experiment). Data are represented as % of vehicle control (Mean±SD). […]
The aim of this study is to determine whether Compound C might present neuroprotective, anti-apoptotic and neuro-rescuing effects in in vitro AβO induced neuron death models. For that purpose, the neuro-protective effects of compound C at six concentrations were investigated using mouse primary cortical neurons challenged with Aβ1-42 oligomers (AβO) Compounds were added at different time points (concomitantly T0 with AβO and T3, or T6 after AβO) with the aim to identify rescuing effects or anti-apoptotic effects.
Cortical neurons from embryonic day 16-17 are prepared from C57Bl6/J mouse fetuses, as described in Example I-1.
Mouse cortical neurons were exposed for 24 h to 1.0 μM AβO. The AβO-induced neurotoxicity was evaluated using the MTT assay. […] (FIG. 4)
The percentage of neuroprotection and anti-apoptosis effects was defined as; (neuron viability of compound C group−neuron viability of toxin treated group)/(100−neuron viability of toxin treated group)×100%. The % of neuroprotection and anti-apoptotic effects of compound C at 1000 nM is 88.7%, 52.0%, 22.3%, at T0, T3, or T6, respectively. (FIG. 4) […]

[2] = Cell viability of neurons pre-incubated 48 h with test item only (no AβO), MTT assay; format: cell-based; conditions: C57BL6/J, mouse, mouse primary cortical neurons, 1 nM compound C only, 48 h pre-incubation
Description: (§1) Mouse primary cortical neurons were pre-incubated for 48 h with vehicle, 0.05 μM DHA (used as positive control) or different concentrations of Compound C. Then, cortical neurons were treated for 24 h with vehicle (FIG. 1 left) or 1 μM AβO (FIG. 2 right) and cell viability was determined using the MTT assay (n=3 determinations per condition, 1 independent experiment), Data are represented as % of vehicle control (Mean*SD).
as §1, with “of Herb B Extracts.” for “of Compound C.”, “(FIG. 10” for “(FIG. 1”, “(FIG. 11” for “(FIG. 2”, “control (Mean±SD).” for “control (Mean*SD).”
Cortical neurons from embryonic day 16-17 are prepared from C57BL6/J mouse fetuses. In brief, dissociated cortical cells were plated (50.000 cells/well) in 48-well plates pre-coated with 1.5 μg/mL polyornithine (Sigma). […] The AβO-induced neurotoxicity was evaluated using the MTT assay.
Cortical neurons from embryonic day 16-17 are prepared from C57BL6/J mouse fetuses. […] The AβO-induced neurotoxicity was evaluated using the MTT assay. […]

[3] = test system: age-induced protein aggregates in Saccharomyces cerevisiae; test: Age-induced protein aggregates (Hsp104-GFP foci) in old yeast cells; format: cell-based; conditions: for proportion of cells with a Hsp104-GFP focus: vehicle only 58.7±10.6%
Description: FIG. 9a: Representative images of a young cell, or old cells untreated or treated with Herb B (10 μg/ml) or Compound C (30 μM). Upper panels are maximum projection of z-series stacks of cells stained with fluorescent brightener 28 and imaged in the DAPI channel to reveal bud scars. Lower panel are single focal planes images of the same cells that express Hsp104-GFP and imaged in the GFP channel. Arrow point at an Hsp104-GFP focus.
FIG. 9c: Percentage of cells with an Hsp104-GFP focus. Cells were imaged with the same illumination conditions. All old cells imaged were included (between 75 and 94 cells). All focal planes were examined Mean±SD. P values are adjusted p values from an ANOVA comparing to vehicle only.
FIG. 9d: Average fluorescence intensity of Hsp104-GFP in the cell as a proxy for Hsp104-GFP concentration. Mean±SD. P values are adjusted p values obtained from ANOVA comparing to vehicle only
To test an effect on the formation of age-induced Hsp104-GFP foci, old cells were obtained and cultivated in the presence of Compound C (1 μM, 10 μM and 30 μM). Herb B (10 μg/ml), ethanol (0.3%, vehicle only) or in the absence of any treatment. Untreated young cells were obtained through a simple exponential growth.
Age was determined by staining bud scars with fluorescent brightener 28. […] (FIG. 9b)

[4] = test system: patients suffered from incurable diseases; test: Case reports of patients eating functional food containing SBC003; format: in vivo, human
Text: Compound C (tripentadecanoin) is a natural lipid which can be found in specific herbs, but can also be found in human/animal milk. The patients described in examples II suffered from incurable diseases without any efficient treatment have voluntarily requested the functional food which containing SBC003.

Compound: CCCCCCCCCCCCCCC(=O)OCC(COC(=O)CCCCCCCCCCCCCC)OC(=O)CCCCCCCCCCCCCC [Compound C, tripentadecanoin]
- % of neuroprotection and anti-apoptotic effects ([1]; T0): 88.7%
- % of neuroprotection and anti-apoptotic effects ([1]; T3): 52.0%
- % of neuroprotection and anti-apoptotic effects ([1]; T6): 22.3%
- viability at 0.32 µM ([1]; Mus musculus, Primary cortical neuron, 320 nM, added 3 h after AβO (T3)): 65.3 ± 2.6%
- viability at 1 µM ([1]; Mus musculus, Primary cortical neuron, added 3 h after AβO (T3)): 76.6 ± 2.9%
- viability at 1 µM ([1]; Mus musculus, Primary cortical neuron, added 6 h after AβO (T6)): 62.4 ± 3.5%
- viability at 1 µM ([1]; Mus musculus, Primary cortical neuron, added concomitantly to AβO (T0)): 94.5 ± 4.6%
- viability at 48 h, 0.001 µM [2]: 117 ± 3.7%
- proportion of cells with a Hsp104-GFP focus ([3]; 1 μM, not statistically significant): 46.2±4.8%
- proportion of cells with a Hsp104-GFP focus ([3]; 10 μM): 37.5±6.0%
- proportion of cells with a Hsp104-GFP focus ([3]; 30 μM): 34.3±13.7%
- intensity of Hsp104-GFP (increase in old vs young cells) ([3]; compound C 1, 10, 30 μM, herb B 10 μg/ml): reduced the extent of this increase
- serum creatinine, average level ([4]; female, chronic kidney failure, on treatment, before mean 9.21 mg/dl): 8.88 mg/dL
- serum creatinine ([4]; female, chronic kidney failure, single values on treatment, before mean 9.21 mg/dl, listed as SBC003): 8.88 mg/dL and 8.97 mg/dL and 8.55 mg/dL and 9.12 mg/dL
- time breathing by themself ([4]; person, ALS, ventilator, functional food containing SBC003 about 10 mg/day, about one month, before at the most 30 mins/day): about 55 mins/day
- Parkinson's symptoms ([4]; person, Parkinson's disease, functional food containing SBC003 about 10 mg/day, after about one week): abnormal shaking in feet improved
- symptoms of asthma ([4]; person, asthma about 20 years, about 5 mg/time for about few times): greatly improved
- asthma symptoms ([4]; person, asthma about 29 years, functional food containing SBC003 about 5 mg for one or two time): symptoms greatly improved
- facial expression / communication ([4]; person, cerebellar atrophy, functional food containing SBC003 about 10 mg/day, after about one month): started to smile
- urine volume once per day ([4]; person, chronic kidney failure, haemodialysis, no urine before, about 10 to 25 mg/day for about 1 month, after about 2 months): 10 mL
- urine total volume per day ([4]; person, chronic kidney failure, after increasing to 50-100 mg/day for about 2-3 months): about 50 ml per day
- blood glucose level ([4]; person, chronic kidney failure, on treatment, prior to the treatment 130-180 mg/dl): 70 to 105 mg/dL
- vision (patient-reported) ([4]; person, optic atrophy, blind, functional food containing SBC003 about 7 mg/day for 7 days, after about one month): brighter and better vision
- sitting time ([4]; person, spinal fractures, about 20 mg/day, about 10 days, before only 1 hour/time): up to 2 hours
- remaining lumbar pains ([4]; person, spinal fractures, functional food containing SBC003 about 20 mg/day, about 10 days): 40 % of the pains before taking SBC003

Reference: patent US12594255B2, “Lipids with odd number of carbon atoms and their use as pharmaceutical composition or nutritional supplement” (SunRegen Healthcare AG, priority 2016, dated 2026)
